# Measured values as given in patent publication US5639715A, “Aqueous based drilling fluid additive and composition” (M-I Drilling Fluids LLC, priority 1994, dated 1997).
# Experiments:
# Assay type in all cases: physicochemical
# [1] = lubricity coefficient, Baroid lubricity meter (Table 4); details: 1% solution in deionized water
# Experimental: A 1% solution of surfactant as in deionized water was tested on a Baroid lubricity meter (Model No. 21200-EP/Lubricity Tester). The lubricity coefficient of the samples were calculated and recorded in Table 4. Deionized water was used as base.
# [2] = coefficient of friction on sandstone, Lubricity Evaluation Monitor (LEM) (Table 5); details: 1/2% in 22.5 ppb bentonite slurry
# Experimental: The following experiment shower the lubricity properties of surfactants of this invention in 22.5 ppb bentonite slurry in water. The coefficient of friction on sandstone was determined using a Lubricity Evaluation Monitor (LEM) designed by M-I Drilling Fluids Company.
# [3] = surface tension measurement at various concentrations and temperatures
# Experimental: The surface tension measurement were carried out on Monawet SNO-35 and coco diethanolamide (CDA) at various concentrations and various temperatures. The following results establish that the higher surface tension values of the products of this invention when compared to the prior art, coco diethanolamide (CDA), would have lower foaming in drilling fluid applications.
structure (smiles),measurement,setting,value
"CCCCCCCCCCCCCCCCCCN(C(=O)CC(C(=O)O)S(=O)(=O)O)C(CC(=O)O)C(=O)O (stereo not shown) [Monawet SNO-35, tetrasodium N-(1,2-dicarboxyethyl) N-alkyl (C18) sulfosuccinamate]",Lubricity coefficient,[1],.095
same,% Reduction (lubricity coefficient),[1]; versus DI water,72%
same,% Reduction (coefficient of friction),[2],73.9%
same,Coefficient of Friction,[2],0.168
same,Surface Tension,"[3]; 0.1% in DI water, 24 °C",51 dynes per centimeter
same,Surface Tension,"[3]; 0.1% in DI water, 38 °C",47 dynes per centimeter
same,Surface Tension,"[3]; 0.1% in DI water, 43 °C",45 dynes per centimeter
same,Surface Tension,"[3]; 0.1% in DI water, 50 °C",44 dynes per centimeter
same,Surface Tension,"[3]; 1.0% in DI water, 24 °C",49 dynes per centimeter
same,Surface Tension,"[3]; 1.0% in DI water, 36 °C",42 dynes per centimeter
same,Surface Tension,"[3]; 1.0% in DI water, 45 °C",38 dynes per centimeter
same,Surface Tension,"[3]; 1.0% in DI water, 50 °C",37 dynes per centimeter
same,Surface Tension,"[3]; 2.0% in DI water, 24 °C",46 dynes per centimeter
same,Surface Tension,"[3]; 2.0% in DI water, 38 °C",41 dynes per centimeter
same,Surface Tension,"[3]; 2.0% in DI water, 44 °C",39 dynes per centimeter
same,Surface Tension,"[3]; 2.0% in DI water, 49 °C",37 dynes per centimeter
